From PubChem BioAssay AID720701 (Sanford-Burnham Center for Chemical Genomics, 2013) come the findings set out here.

Active and inactive are the calls of the source. The rule behind the calls is not given here.

The target of this test is Protein artemis (Homo sapiens) (UniProt Q96SD1). As to the kind of experiment: IC50 of Artemis nuclease activity blockers – biochemical, fluorescence intensity, dose response (AID 720701). Conditions: Recombinant Artemis endonuclease.
Protein artemis (Homo sapiens), sequence (Q96SD1 whole entry, looked up): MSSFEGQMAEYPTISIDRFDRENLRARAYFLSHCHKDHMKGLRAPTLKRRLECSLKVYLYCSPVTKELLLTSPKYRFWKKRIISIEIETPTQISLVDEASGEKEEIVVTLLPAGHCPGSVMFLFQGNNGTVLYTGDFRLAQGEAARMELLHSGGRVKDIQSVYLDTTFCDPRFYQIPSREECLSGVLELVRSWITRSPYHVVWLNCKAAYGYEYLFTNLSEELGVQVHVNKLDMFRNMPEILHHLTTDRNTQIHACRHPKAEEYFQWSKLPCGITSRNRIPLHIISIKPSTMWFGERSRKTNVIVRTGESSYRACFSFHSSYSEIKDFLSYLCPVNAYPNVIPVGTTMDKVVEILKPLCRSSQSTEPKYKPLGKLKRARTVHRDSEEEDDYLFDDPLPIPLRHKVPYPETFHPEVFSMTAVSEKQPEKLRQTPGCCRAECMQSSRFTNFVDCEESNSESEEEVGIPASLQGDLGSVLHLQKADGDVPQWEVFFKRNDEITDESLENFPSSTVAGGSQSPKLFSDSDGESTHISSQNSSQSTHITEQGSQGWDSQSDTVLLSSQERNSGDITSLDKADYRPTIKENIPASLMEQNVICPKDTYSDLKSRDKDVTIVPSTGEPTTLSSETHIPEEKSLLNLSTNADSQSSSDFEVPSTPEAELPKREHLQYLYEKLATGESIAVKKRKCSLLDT
`Nc1[nH]n2c(=O)c3c(nc2c1N=Nc1ccc(Cl)cc1)CCCC3`: the IC50 was 16.4 µM. Turning to `COc1ccc(O)c(/C=N/Nc2nc(Nc3ccccc3)nc(-n3nc(C)cc3C)n2)c1`, the IC50 was 2.23 µM. For `Cc1nnc(-c2ccccc2)c(=O)n1/N=C/c1c(O)ccc2ccccc12`, the IC50 was > 20 µM (inactive). On to `C/C(=N\O)c1ccccc1C(=O)O`, for which the IC50 was 3.62 µM. Under `COc1ccc(Nc2nc(NCc3ccco3)nc(N/N=C/c3ccccc3)n2)cc1` stands 2.65 µM; under `CN1/C(=N\O)c2cccc3cccc1c23`, > 20 µM (inactive).

As to `COc1cccc(N=Nc2c(N)[nH]n3c(=O)cc(-c4ccccc4)nc23)c1`, the IC50 is 16.2 µM. The same measure for `COc1cccc(/C=N/Nc2nc(Nc3ccccc3)nc(-n3nc(C)cc3C)n2)c1O`: 1.5 µM; for `O=C(CCCSc1ccccc1)Nc1nc(-c2ccccn2)cs1`: 9.58 µM; for `COc1ccc(C(=O)c2c(C(F)(F)F)oc3c2C(=O)c2ccccc2C3=O)cc1OC`: > 20 µM (inactive). Take `Cc1cc(C)n(-c2nc(Nc3ccccc3C(F)(F)F)nc(-n3nc(C)cc3C)n2)n1`: the IC50 is 5 µM. Under `CCCCCCCCC/C(=N\O)c1ccccn1` stands 11 µM. For the molecule `N#CC1=C(N)Oc2n[nH]c(-c3cccs3)c2C1c1ccoc1` (stereo unspecified), the IC50 was > 20 µM (inactive). As for `O=c1c2ccccc2nc(N/N=C/c2c(O)ccc3ccccc23)n1O`, the IC50 is 4.68 µM. For the molecule `CCN(CC)c1ccc(/C=N/Nc2nc3ccccc3[nH]2)c(O)c1`, the IC50 is 15.5 µM. Take `Oc1ccc2ccccc2c1C=NC12CN3CCN(CN(C3)C1)C2`: the IC50 is 3.64 µM.

One may read the IC50 as the point on the concentration scale where inhibition reaches its midpoint.
